# Data taken from PMC8344021, “Discovery of Small Molecule Bak Activator for Lung Cancer Therapy” (Theranostics, 2021).
# Key:
# [1] = test system: NSCLC and SCLC cell lines; test: Apoptotic cell death in panel of NSCLC and SCLC cell lines; type: cell-based, human; settings: 1μM
# Method: Figure 1 Discovery of small molecule BKA-073 as a lead compound that targets BH3 domain of Bak and induces mitochondrial priming and apoptosis in lung cancer cells. (A) Schematic illustration of screening strategies used to identify the lead Bak agonist BKA-073 and its chemical structure. (B) Structural modeling of BKA-073 in the BH3 domain binding pocket of Bak protein. (C) Expression levels of Bak were analyzed by Western blot in NSCLC and SCLC cell lines. (D-E) A panel of NSCLC and SCLC cell lines were treated with BKA-073 (1μM) for 16h or 72h, followed by analysis of dynamic BH3 profiling (D) or apoptotic cell death (E), respectively. Data represent the mean ± SD, n = 3 per group. **P < 0.01, ***P < 0.001, by 2-tailed t test. TEXT PRINTED IN THE PICTURE: (A) BKA-073: MW: 361.87 […]
# Supplemental Materials and Methods
# Small molecule NSC14073 (BKA-073) was obtained from the Drug Synthesis and Chemistry Branch, Developmental Therapeutic Program, Division of Cancer Treatment and Diagnosis, National Cancer Institute (NCI, Bethesda, MD) (http://dtp.nci.nih.gov/RequestCompounds).
# Venetoclax (ABT-199, 205807) was purchased from MedKoo Biosciences (Morrisville, NC).
# Antibodies including PARP (sc-8007), Bax (sc-7480), Mcl-1 (sc-12756), cytochrome c (sc-13156) and actin (sc-47778) were purchased from Santa Cruz (Santa Cruz, CA). Bcl2 antibody (05-826) was obtained from Calbiochem (Darmstadt, Germany). Bcl-XL (ab32370), Bak (ab32371) and Bax (ab104156) antibodies were purchased from Abcam (Cambridge, MA). […]
# Cells were seeded at a density of 5 × 103 per well in 96-well plates and allowed to grow overnight. After treatment with BKA-073, the surviving cell fraction was determined using the sulforhodamine B (SRB) assay as described. Optical density (OD) was measured at 510nm in a microplate reader (Synergy H1, BioTek®, Winooski, VT). […]
# Apoptotic cells were detected using Annexin-V Apoptosis Detection Kit (556547, BD Biosciences, San Jose, CA) according to the manufacturer’s instructions. […]
# [2] = test system: H1299, H460 and A549 cells; test: Sulforhodamine B (SRB) cytotoxicity screening; type: cell-based, human; settings: SRB assay
# From the text: The BH3 death domain is known to be required for the proapoptotic function of Bak. We chose the BH3 domain binding pocket (aa75-88) of Bak (PDB ID: 2YV6) as a docking site for screening of small molecules using the UCSF DOCK 6.1 program suite and the NCI chemical library (300,000 small molecule) database as we recently described, [20], [29], [34]. Small molecules were ranked according to their energy scores. The top 500 compounds determined to have the highest affinity for the BH3 domain were obtained from the NCI and tested for cytotoxicity in human lung cancer cells (i.e. H1299, H460 and A549 cells) by sulforhodamine B (SRB) assay for further screening as described, [36]. […] We named this lead compound Bak activator BKA-073 (C19H24ClN3O2, MW: 361.87) (Figure 1A). To test the effect of BKA-073 on mitochondrial priming (∆% priming) and apoptotic cell death, human lung cancer A549 cells were treated with increasing concentrations (0, 0.25, 0.5, 0.75, 1.0 µM) of BKA-073, followed by analysis of dynamic BH3 profiling (DBP) at 16h and apoptotic cell death at 72h as described, [37]. […] In addition to lung cancer cell lines, we evaluated the efficacy of BKA-073 in other types of cancer cell lines, including breast cancer (MDA-MB-231 and MCF7), colon cancer (HCT-116), lymphoma (Ramos), multiple myeloma (OPM-1), pancreatic cancer (PANC-1) and osteosarcoma (U2OS) cell lines. […]
smiles,measurement,setting,value
COc1ccc2nc3ccccc3c(NCCNCC(C)O)c2c1 (stereo not shown) [BKA-073],induction of apoptosis,[1]; 72h,potently induced
same,"sensitivity (mitochondrial priming and apoptosis), lines with relatively higher Bak","[1]; A549, H157, H1975, DMS53, DMS114, H209, H526",more sensitive
same,"sensitivity (mitochondrial priming and apoptosis), lines with relatively lower Bak","[1]; Calu-1, H69, H128, H146",less sensitive
same,cytotoxicity among top 500 docking hits,[2],most potent activity
